Columns and labels:
[1] = Sensory Testing 1: Savory Model (trained panel, umami and saltiness); assay type: in vivo; settings: 10 ppm; panel of 20-22 trained panelists; score on scale -5 (strong masking) to 5 (strong enhancing), 0 = reference water solution with 0.25% NaCl and 0.05% MSG
Experimental: Each of Compound 101, Compound 102, Compound 103, Compound 104, Compound 105, Compound 106, Compound 107, Compound 108 and Compound 109 was tested for taste properties, particularly umami and saltiness. A panel of 20-22 trained panelists evaluated the samples of each test compound at 10 ppm for umami taste properties and saltiness taste properties, and scored the solutions on a scale ranging from −5 to 5 (with −5 denoting a strong masking effect, and 5 denoting a strong enhancing effect, and 0 representing the intensity of a reference water solution containing 0.25% sodium chloride (NaCl) and 0.05% monosodium glutamate (MSG), respectively).

[2] = Sensory Testing 2: Chicken Soup (expert panel, salt, umami, meaty, kokumi); assay type: in vivo; settings: 10 ppm, panel of 8 experts, score on scale -5 to 5, 0 = reference water solution with 1.26% Chicken base, 0.7% NaCl, 0.04% MSG; for Mouth-coating / Round / Thick: kokumi
Experimental: Each of Compound 103, Compound 104 and Compound 109 was tested for flavor, taste and mouthfeel properties, particularly kokumi. A panel of 8 experts evaluated the samples of each test compound at 10 ppm for salt, umami, meaty, and kokumi (mouthcoating, round and thick) properties, and scored the solutions on a scale ranging from −5 to 5 (with −5 denoting a strong masking effect, and 5 denoting a strong enhancing effect, and 0 representing the intensity of a reference water solution containing 1.26% Chicken base, 0.7% NaCl, and 0.04% MSG, respectively).

C[C@@H](CNC(=O)CC[C@H](N)C(=O)O)C(=O)O [Compound 109]
Saltiness [1]: 0.58
Umami [1]: 0.50
Meaty [2]: 0
Saltiness [2]: 0.92
Umami [2]: 0.58
Mouth-coating [2]: 0.83
Round [2]: 0.58
Thick [2]: 0.83

CC(C)NC(=O)CCC(N)C(=O)O (stereo not drawn) [Compound 101]
Saltiness [1]: 0.79
Umami [1]: 0.06

COc1ccc(CNC(=O)CCC(N)C(=O)O)cc1 (stereo not drawn) [Compound 105]
Saltiness [1]: 0.38
Umami [1]: 0.76

NC(CCC(=O)NCCCC(=O)O)C(=O)O (stereo not drawn) [Compound 103]
Saltiness [1]: 0.64
Umami [1]: 0.73
Meaty [2]: 0.67
Saltiness [2]: 0.67
Umami [2]: 0.83
Mouth-coating [2]: 1.08
Round [2]: 0.92
Thick [2]: 0.92

C[C@H](CNC(=O)CC[C@H](N)C(=O)O)C(=O)O [Compound 104]
Saltiness [1]: 0.96
Umami [1]: 0.32
Meaty [2]: 0.42
Saltiness [2]: 0.75
Umami [2]: 0.75
Mouth-coating [2]: 0.75
Round [2]: 0.50
Thick [2]: 0.58

NC(CCC(=O)NCCc1ccc(O)cc1)C(=O)O (stereo not drawn) [Compound 106]
Saltiness [1]: 0.33
Umami [1]: 0.51

N=C(N)NCCCC(NC(=O)CCC(=O)O)C(=O)O (stereo not drawn) [Compound 107]
Saltiness [1]: 0.61
Umami [1]: 0.66

NC(CCC(=O)NCCO)C(=O)O (stereo not drawn) [Compound 102]
Saltiness [1]: 0.44
Umami [1]: 0.46

N=C(N)NCCCC(NC(=O)c1ccc(O)cc1)C(=O)O (stereo not drawn) [Compound 108]
Saltiness [1]: 0.49
Umami [1]: 0.47

Source: patent US20230148070A1, “AMINO ACID DERIVATIVES AND THEIR USE AS FLAVOR MODIFIERS” (Firmenich SA, priority 2020, published 2023)
